Source: patent US20240325312A1, “Composition comprising cannabidiol and hydroxychloroquine in a fixed dose combination capsule” (priority 2021, published 2024)

How the values were obtained:
Lewis rats [1] = assay: Collagen-induced arthritis; type: in vivo; design: key to Relative reduction in pannus score / Relative reduction in total histology score / Reduction in pannus score / Reduction in total histology score / Reduction in IL-1B / Reduction in IL-6 / Reduction in clinical score: fractional reduction vs vehicle control, sham baseline subtracted
Protocol: Female Lewis rats were challenged with porcine type-II collagen with Freund's adjuvant on Day 1 (0.2 mg/0.2 mL/rat) by subcutaneous injection at the base of the tail to induce arthritis. A booster injection at 0.1 mg/0.1 mL/rat) was administered on Day 7. On Day 16, rats were allocated into groups of six based on hind paw volume, with animals allocated into groups to provide a similar distribution of hind paw volumes.
Vehicle and active agents (i.e., CBD and hydroxychloroquine) alone or in combination were administered intraperitoneally (IP) once a day starting from Day 17 to Day 30, i.e., for a total of 14 consecutive days.
Disease was assessed by measuring hind paw volume with plethysmometer and using a qualitative severity score system as outlined in Table 16 on Day 1, 7, 10, 14, 16, 18, 20, 22, 24, 26, 28 and 30.
Post-termination on Day 30, blood was collected from all rats and analysed for levels of the inflammatory cytokines […], IL-6 and TNF-α by ELISA. Both hind paws were harvested, weighed and formalin-fixed for histopathology. Tissue was assessed to evaluate cartilage and bone destruction by pannus formation and mononuclear cell infiltration in synovial tissues according to the scoring matrices set out in Tables 17 and 18. A total histology score, being the sum of the pannus formation and mononuclear cell infiltration score, was also calculated.
For synergy analysis, data were baseline subtracted using sham treated […] (i.e., no collagen injection), before normalizing the values relative to vehicle control. Synergy was calculated using the statistical methods described elsewhere herein.

[2] = test system: human peripheral blood mononuclear cells (PBMCs); assay: LPS-stimulated cytokine release from human PBMCs, checkerboard, Luminex; type: cell-based
Protocol: The anti-inflammatory activity the combination of CBD and hydroxychloroquine was assessed by determining cytokine release from human peripheral blood mononuclear cells (PBMCs) stimulated with bacterial lipopolysaccharide (LPS) using a Luminex based assay. A 96-well microtitre plate-based checkerboard assay with seven concentrations (including the no drug control) of CBD and hydroxychloroquine were assessed in combination was used to determine the drug-drug interaction. Briefly, frozen PMBCs from two independent donors were thawed, diluted in culture medium, seeded into 96-well microtitre plates and incubated at 37° C., 5% CO2 for 1 hour prior to the addition of test compounds. After the addition of the test compounds the cells were returned to the incubator for 1 hour, after which LPS was added to the wells. Plates were incubated at 37° C., 5% CO2 for 24 hours. After 24 hours, cell culture supernatants were removed and analysed for cytokine levels using Luminex methodology according to manufacturers' instructions. All values had the vehicle background subtracted prior to further analysis. Three plates were set up in parallel using the PBMCs from the same donor. Inhibition of cytokine release was determined relative to the no treatment control (i.e., that was stimulated with LPS) and averaged across the three replicates. A cytotoxicity assay using AlmarBlue with the identical plate set up was performed in parallel.
(§1) Drug synergy was determined using the Bliss Independence method where the predicted effect of the drug combination is calculated using the equation: […]

Lewis rats [3] = assay: Collagen-induced arthritis; type: in vivo; conditions: Day 30
BALB/c mice = assay: TNBS-induced colitis; type: in vivo; conditions: H&E
From the text: Male BALB/c were used as an in vivo model of colitis, induced by intracolonic administration of 2,4,6-trinitrobenzene sulfonic acid (TNBS) in 50% ethanol, as previously described by Antoniou et al. (2016, Annals of Medicine and Surgery, 11: 9-15). Briefly, the ethanol disrupts the intestinal barrier, permitting TNBS to interact with colon proteins. Interaction of TNBS with high-molecular weight proteins renders them immunogenic, leading to Th1 mediated inflammation, which is causative of symptoms include inconsistent stool formation and blood in the faeces. […]
Other endpoint measures of stool consistency score (i.e., 0—normal stools, 1, soft but still formed stools, 2—very soft stools, 3—diarrhoea), faecal occult blood score (i.e., 0—negative hemoccult, 1—positive hemoccult, 2—blood traces in stool visible, 3—rectal bleeding), colon weight, colon macroscopic damage score (a composite of adhesions, strictures, ulcers/inflammations and wall thickness) and myeloperoxidase levels in the colon tissue were also assessed. The data from each of these endpoints was baseline subtracted using the equivalent measures from sham treated mice (i.e., no TNBS) and reduction in any measure calculated as a relative reduction. Synergy was calculated using the statistical methods described elsewhere herein.

C57BL/6 mice = assay: Lipopolysaccharide (LPS)-induced sepsis, serum cytokines; type: in vivo
Protocol: Male C57BL/6 mice weighing 10-20 g were used. Vehicle and active agents (i.e., CBD and hydroxychloroquine) alone or in combination were administered intraperitoneally (IP) or orally at 1 hour before LPS (100 μg/100 μL/mouse) injected intravenously (IV). At 2 hours after LPS injection, blood was collected from all mice by cardiac puncture, sera processed and assayed for biomarkers using either the Th17-plex for IL-1β, IL-2, IL-10, IL-12 (p70), IFN-γ and TNF-α by Luminex, plus IL-6 and D-dimer by ELISA, or the 23-plex for IL-1α, IL-1β, IL-2, IL-3, IL-4, IL-5, IL-6, IL-9, IL-10, IL-12(p40), IL-12(p70), IL-13, IL-17A, Eotaxin, G-CSF, GM-CSF, IFN-γ, KC, MCP-1(MCAF), MIP-1α, […], RANTES, and TNF-α by Luminex, plus IL-6 by ELISA. ANOVA followed by Dunnett's test was applied for comparison between vehicle and treatment groups. p<0.05 is considered significant.
For synergy analysis, data were baseline subtracted using the cytokine levels of sham treated mice (i.e., no LPS injection), before normalizing the values for each cytokine relative to maximum values across the groups. The normalized values were used to calculate the relative inhibition where a value of 1 represents complete inhibition and a value of 0 represents no inhibition. Synergy was calculated using the statistical methods described elsewhere herein.
as §1

## C=C(C)[C@@H]1CCC(C)=C[C@H]1c1c(O)cc(CCCCC)cc1O [CBD, cannabidiol]
Lewis rats [1]; Day 30, CBD 1 mg/kg
  Relative reduction in pannus score: 0.07
  Relative reduction in serum IL-6 level: 0.50
  Relative reduction in total histology score: 0.11
[2]; Donor 1, CBD 5.00 μg/mL
  FIE, IL-1α release: 0.40
  FIE, IL-1β release: 0.38
  FIE, IL-6 release: 0.08
  FIE, MIP-1α release: 0.12
  FIE, TNF-α release: 0.05
[2]; Donor 2, CBD 5.00 μg/mL
  FIE, IL-1α release: 0.28
  FIE, IL-1β release: 0.13
  FIE, IL-6 release: 0.09
  FIE, MIP-1α release: 0.00
  FIE, TNF-α release: 0.07
Lewis rats [3]; CBD 1 mg/kg
  Relative reduction in serum IL-1β level: 0.31
BALB/c mice; CBD (1 mg/kg)
  Colon tissue histology finding (FIG. 4): regions of inflammatory cell infiltration in submucosal edema
C57BL/6 mice; CBD 10 mg/kg
  Relative inhibition of IFN-γ release: 0.00
  Relative inhibition of IL-1β release: 0.34
  Relative inhibition of IL-6 release: 0.14
  Relative inhibition of IL-12(p70) release: 0.00
  Relative inhibition of TNF-α release: 0.00
C57BL/6 mice; CBD 25 mg/kg
  Relative inhibition of IL-6 release: 0.03

## CCN(CCO)CCCC(C)Nc1ccnc2cc(Cl)ccc12 (stereo not drawn) [HCQ, 2-[[4-[(7-chloro-4-quinolinyl)amino]pentyl]-thylamino]ethanol]
Lewis rats [1]; Day 24, HCQ 25 mg/kg
  Reduction in clinical score: 0.21
  Reduction in paw volume: 0.10
Lewis rats [1]; Day 30, HCQ 2.5 mg/kg
  Relative reduction in pannus score: 0.07
  Relative reduction in serum IL-6 level: 0.51
  Relative reduction in total histology score: 0.15
Lewis rats [1]; Day 30, HCQ 25 mg/kg
  Reduction in clinical score: 0.26
  Reduction in paw volume: 0.20
Lewis rats [1]; HCQ 25 mg/kg
  Reduction in mononuclear cell infiltration: 0.24
  Reduction in pannus score: 0.28
  Reduction in total histology score: 0.26
Lewis rats [1]; serum, HCQ 25 mg/kg
  Reduction in IL-1B: 0.25
  Reduction in IL-6: 0.36
[2]; Donor 1, HCQ 0.63 μg/mL
  FIE, IL-1α release: 0.03
  FIE, IL-1β release: 0.08
  FIE, IL-6 release: 0.12
  FIE, TNF-α release: 0.00
[2]; Donor 1, HCQ 1.25 μg/mL
  FIE, IL-1α release: 0.01
  FIE, IL-1β release: 0.07
  FIE, IL-6 release: 0.00
  FIE, TNF-α release: 0.08
[2]; Donor 1, HCQ 2.50 μg/mL
  FIE, IL-1α release: 0.12
  FIE, IL-1β release: 0.08
  FIE, IL-6 release: 0.10
  FIE, MIP-1α release: 0.00
  FIE, TNF-α release: 0.05
[2]; Donor 1, HCQ 5.00 μg/mL
  FIE, IL-1α release: 0.24
  FIE, IL-1β release: 0.17
  FIE, IL-6 release: 0.08
  FIE, TNF-α release: 0.02
[2]; Donor 1, HCQ 10.00 μg/mL
  FIE, IL-1α release: 0.50
  FIE, IL-1β release: 0.68
  FIE, IL-6 release: 0.00
  FIE, TNF-α release: 0.04
[2]; Donor 1, HCQ 20.00 μg/mL
  FIE, IL-1α release: 0.54
  FIE, IL-1β release: 0.81
  FIE, IL-6 release: 0.12
  FIE, MIP-1α release: 0.00
  FIE, TNF-α release: 0.30
[2]; Donor 2, HCQ 0.63 μg/mL
  FIE, IL-1α release: 0.07
  FIE, IL-1β release: 0.06
[2]; Donor 2, HCQ 1.25 μg/mL
  FIE, IL-1α release: 0.11
[2]; Donor 2, HCQ 2.50 μg/mL
  FIE, IL-1α release: 0.19
  FIE, IL-1β release: 0.07
[2]; Donor 2, HCQ 5.00 μg/mL
  FIE, IL-1α release: 0.49
  FIE, TNF-α release: 0.02
[2]; Donor 2, HCQ 10.00 μg/mL
  FIE, IL-1α release: 0.68
  FIE, IL-6 release: 0.11
  FIE, MIP-1α release: 0.00
  FIE, TNF-α release: 0.18
[2]; Donor 2, HCQ 20.00 μg/mL
  FIE, IL-1α release: 0.63
  FIE, IL-6 release: 0.47
  FIE, MIP-1α release: 0.00
Lewis rats [3]; HCQ 2.5 mg/kg
  Relative reduction in serum IL-1β level: 0.37
BALB/c mice; hydroxychloroquine (2.5 mg/kg)
  Colon tissue histology finding (FIG. 4): regions of mild abnormality, cyctic dilation and aberrant crypts
